We go through one compound from patent US7186701B2, “Dehydrating agent and method for dehydrating moist article using the agent and dehydrated article obtained by the method” (Kabushiki Kaisha Hayashibara Seibutsu Kagaku Kenkyujo, priority 2001, dated 2007).

For one data set, the target named is T1, salivary amylase (Homo sapiens, UniProt P0DUB6).
T1 sequence (P0DUB6 16-511): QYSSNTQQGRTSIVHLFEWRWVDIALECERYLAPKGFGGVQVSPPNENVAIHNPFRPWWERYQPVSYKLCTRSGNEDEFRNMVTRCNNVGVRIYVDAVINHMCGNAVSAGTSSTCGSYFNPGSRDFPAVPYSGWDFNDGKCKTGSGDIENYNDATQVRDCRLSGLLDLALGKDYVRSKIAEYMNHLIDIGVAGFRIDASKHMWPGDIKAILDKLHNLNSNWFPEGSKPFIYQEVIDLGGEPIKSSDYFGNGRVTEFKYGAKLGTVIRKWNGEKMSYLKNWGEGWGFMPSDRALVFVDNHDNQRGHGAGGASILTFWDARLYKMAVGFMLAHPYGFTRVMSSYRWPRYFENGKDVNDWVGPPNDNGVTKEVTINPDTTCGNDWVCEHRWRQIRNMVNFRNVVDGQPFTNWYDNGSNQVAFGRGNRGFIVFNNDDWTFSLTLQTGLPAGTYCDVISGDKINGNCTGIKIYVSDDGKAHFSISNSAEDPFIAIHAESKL

In data set [1] the test system is Bifidobacterium adolescentis JCM 1275. The experiment in a line: Assimilation test. It counts as cell-based. Conditions: 0.5% saccharide in PYF medium, 37° C., four days, anaerobic.
Data set [2] relates to Clostridium perfringens JCM 3816. Type of data set: cell-based. Conditions: 0.5% saccharide in PYF medium, 37° C., four days, anaerobic.
For data set [3], the system named is Lactobacillus acidophilus JCM 1132. The experiment in a line: Assimilation test. The following applies: 0.5% saccharide in PYF medium, 37° C., four days, anaerobic. Type of data set: cell-based.
The subject of data set [4] is Small intestinal mucosal enzyme.
Data set [5] has as its system Bacteroides vulgatus JCM 5826. As to the kind of experiment: Assimilation test. It counts as cell-based. The following applies: 0.5% saccharide in PYF medium, 37° C., four days, anaerobic.

With `OCC1OC2OCC3O[C@H](O[C@H]4C(O)C(CO)OC(OCC5O[C@H](O[C@@H](C1O)C2O)C(O)C(O)[C@@H]5O)C4O)C(O)C(O)[C@@H]3O` (stereo partly drawn) [cyclotetrasaccharide, cyclo{→6)-α-D-glucopyranosyl-(1→3)-α-D-glucopyranosyl-(1→6)-α-D-glucopyranosyl-(1→3)-α-D-glucopyranosyl-(1→}], the figures for the “Decomposition percentage (%) by digestive enzyme” value (at salivary amylase; in data set [4]) were 0.0% and 0.74%, respectively. Besides, the Assimilability entry in data set [1], in data set [2], in data set [3] and in data set [5] was “− (judged as negative (−) when the post culture had a pH of 6.0 or higher)” throughout. In addition, the “digestibility level relative to that of maltitol” value in data set [4] was “⅕”.
